Experimental data from US10525055B2, “Opioid receptor antagonist prodrugs” (Nirsum Laboratories, Inc., priority 2017, dated 2020).

Columns and labels:
[1] = Plasma stability assay, rat plasma; format: in vitro ADME; details: 37° C., 10 μM
[2] = Plasma stability assay, dog plasma; format: in vitro ADME; details: 37° C., 2 μM; for % remaining at time point in minutes, 15 min: 15 min (as headed); for % remaining at time point in minutes, 120 min: 120 min (as headed); for % remaining at time point in minutes, 480 min: 480 min (as headed); for % remaining at time point in minutes, 1440 min: 1440 min (as headed)
Method: (§1) Plasma stability determination of the test compounds in rat, dog, cynomolgus monkey and human plasma is performed using HPLC-MS. For rat, incubations are carried out in 96-well polypropylene plates in 5 aliquots of 70 μL each (one for each time point). […] Five time points are analyzed (0, 15, 120, 480 and 1440 min). […] All incubations are performed in duplicates. The samples are analyzed by HPLC-MS. The percentage of parent compound remaining after incubation in plasma is determined.

[3] = Plasma stability assay, monkey plasma; format: in vitro ADME, cynomolgus monkey; details: 37° C., 2 μM; for % remaining at time point in minutes, 15 min: 15 min (as headed); for % remaining at time point in minutes, 120 min: 120 min (as headed); for % remaining at time point in minutes, 480 min: 480 min (as headed); for % remaining at time point in minutes, 1440 min: 1440 min (as headed)
Method: as §1

[4] = Plasma stability assay, human plasma; format: in vitro ADME; details: 37° C., 2 μM; for % remaining at time point in minutes, 15 min: 15 min (as headed); for % remaining at time point in minutes, 120 min: 120 min (as headed); for % remaining at time point in minutes, 480 min: 480 min (as headed); for % remaining at time point in minutes, 1440 min: 1440 min (as headed)
Method: as §1

[5] = Liver S9 fraction stability, dog; format: in vitro ADME; details: 1.0 mg/ml S9 protein, 2 μM, 37° C.
Method: (§2) Liver S9 fraction stability determination of the test compounds in dog, cynomolgus monkey and human is performed using HPLC-MS. Test compound (2 μM, 0.1% DMSO, 1% Methanol final concentration) was assessed for stability in a 50 μl phosphate buffer containing 1.0 mg/ml S9 protein from each of the three species and 5 mM D-saccharic acid-1, 4-lactone. Samples were incubated at 37° C. for 60 minutes and the % compound remaining was assessed.

[6] = Liver S9 fraction stability, monkey; format: in vitro ADME, cynomolgus monkey; details: 1.0 mg/ml S9 protein, 2 μM, 37° C.
Method: as §2

[7] = Liver S9 fraction stability, human; format: in vitro ADME; details: 1.0 mg/ml S9 protein, 2 μM, 37° C.
Method: as §2

KOR = target: T1, KOR (Homo sapiens, UniProt P41145); test: Opioid receptor binding assay, KOR ([3H]Diprenorphine); details: KOR, MaxDose 10000 nM
T1 construct: expressed in transfected cells; membranes prepared from them
T1 sequence (P41145 whole entry): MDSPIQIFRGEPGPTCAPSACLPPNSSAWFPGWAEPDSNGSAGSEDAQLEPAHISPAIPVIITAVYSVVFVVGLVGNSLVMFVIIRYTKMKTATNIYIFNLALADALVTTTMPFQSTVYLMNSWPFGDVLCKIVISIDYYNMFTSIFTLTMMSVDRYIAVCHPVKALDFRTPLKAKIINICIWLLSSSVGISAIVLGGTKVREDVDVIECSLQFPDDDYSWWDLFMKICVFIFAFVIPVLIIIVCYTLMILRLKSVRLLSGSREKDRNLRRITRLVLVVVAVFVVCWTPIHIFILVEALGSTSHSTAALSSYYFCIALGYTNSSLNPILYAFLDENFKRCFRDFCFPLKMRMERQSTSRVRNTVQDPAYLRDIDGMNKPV

MOR = target: T2, MOR (Homo sapiens, UniProt P35372); test: Opioid receptor binding assay, MOR ([3H]DAMGO); details: MOR, MaxDose 10000 nM
T2 construct: expressed in transfected cells; membranes prepared from them
T2 sequence (P35372 whole entry): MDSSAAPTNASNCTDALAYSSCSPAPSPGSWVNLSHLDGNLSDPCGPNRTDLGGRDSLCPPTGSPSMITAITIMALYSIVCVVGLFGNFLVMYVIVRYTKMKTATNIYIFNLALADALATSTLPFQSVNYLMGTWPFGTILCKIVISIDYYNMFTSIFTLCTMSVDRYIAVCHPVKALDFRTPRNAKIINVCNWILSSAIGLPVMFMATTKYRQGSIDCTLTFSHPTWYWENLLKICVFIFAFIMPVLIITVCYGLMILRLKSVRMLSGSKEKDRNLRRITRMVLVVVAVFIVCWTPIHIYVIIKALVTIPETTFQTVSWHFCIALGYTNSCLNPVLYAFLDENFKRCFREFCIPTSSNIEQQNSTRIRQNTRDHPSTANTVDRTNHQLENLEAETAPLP

[8] = Solubility determination in oil (cottonseed oil, sesame oil); details: heating temp. 60 °C, obs. temp. 25 °C
Method: A known amount of test substance (˜40 mg) was weighed into the vial, 100 μL of oil was added and heated to 60° C. and then system was slurried to reach equilibrium. […] Extra oil was added into the vial once compound precipitated out and then the system was re-equilibrated at 1000 rpm at room temperature (25° C.). Final concentration was determined by HPLC method as described below in Table 6a and 6b.

[9] = Rat pharmacokinetic studies, intramuscular; format: in vivo, male Sprague Dawley Rats; details: rat IM, Sesame oil + 1% Benzyl Alcohol
Method: The purpose of this study is to determine the pharmacokinetics of test compounds in plasma, following intramuscular administration to male Sprague Dawley Rats (n=3, unless otherwise specified).
The dose formulation of 400 mg base equivalents/ml in sesame oil+1% benzyl alcohol (unless otherwise specified) was administered by intramuscular injection. The dose volume was determined by the animals' body weight determined on the morning of dosing day.
Each collected blood sample was centrifuged for 4 minutes at 4° C. and 10000 rpm for plasma collection. Plasma was collected and transferred into a pre-labeled PP tube in dry ice at each time point and precipitated immediately using ACN at a ratio of 1:4 (plasma:ACN). Centrifuged again (10 minutes, 12000 rpm) and obtain the supernatant.
After terminal collection, all supernatant was stored at approximately −80° C. until bioanalysis.
LC-MS/MS methods for the quantitative determination of test compound in biological matrix were developed. […] The sample analysis was performed concurrently with a set of calibration standards and two sets of QC samples using the LC-MS/MS method.
Plasma concentration versus time data was analyzed by non-compartmental approaches using the Phoenix WinNonlin 6.3 software program. Cmax, Tmax, T1/2, AUC(0-t), AUC(0-inf), MRT(0-t), MRT(0-inf) and graphs of plasma concentration versus time profile were prepared.

[10] = Dog pharmacokinetic studies, deep intramuscular; format: in vivo, Beagle dogs; details: dog IM, Sesame oil + 1% Benzyl Alcohol

| SMILES | % remaining at time point in minutes, 0 min [1] [%] | % remaining at time point in minutes, 15 min [1] [%] | % remaining at time point in minutes, 120 min [1] [%] | % remaining at time point in minutes, 480 min [1] [%] | % remaining at time point in minutes, 1440 min [1] [%] | % remaining at time point in minutes, 0 min [2] [%] | % remaining at time point in minutes, 15 min [2] [%] | % remaining at time point in minutes, 120 min [2] [%] | % remaining at time point in minutes, 480 min [2] [%] | % remaining at time point in minutes, 1440 min [2] [%] | % remaining at time point in minutes, 0 min [3] [%] | % remaining at time point in minutes, 15 min [3] [%] | % remaining at time point in minutes, 120 min [3] [%] | % remaining at time point in minutes, 480 min [3] [%] | % remaining at time point in minutes, 1440 min [3] [%] | % remaining at time point in minutes, 0 min [4] [%] | % remaining at time point in minutes, 15 min [4] [%] | % remaining at time point in minutes, 120 min [4] [%] | % remaining at time point in minutes, 480 min [4] [%] | % remaining at time point in minutes, 1440 min [4] [%] | other results |
| --- | --- | --- | --- | --- | --- | --- | --- | --- | --- | --- | --- | --- | --- | --- | --- | --- | --- | --- | --- | --- | --- |
| CCCCCCCCCCCC(=O)OCN1C(=O)CCc2ccc(OCCCCN3CCN(c4cccc(Cl)c4Cl)CC3)cc21 [Aripiprazole lauroxil, reference compound] | 100 | 84 | 85.5 | 76.4 | 46 | 100 | 103 | 81.3 | 78.6 | 74.3 | 100 | 95.2 | 94.5 | 75.5 | 83.2 | 100 | 99.7 | 80 | 73.2 | 75.5 | Liver S9 Fraction Stability % remaining at 60 minutes, Dog [5]: 66.1%; Liver S9 Fraction Stability % remaining at 60 minutes, Monkey [6]: 56.6%; Liver S9 Fraction Stability % remaining at 60 minutes, Human [7]: 47.8% |
| C=C1CC[C@@]2(O)C3Cc4ccc(OC(=O)OCCCCCCCCCCCC)c5c4[C@@]2(CCN3CC2CC2)[C@H]1O5 [Compound 6, (4aS,7aS,12bS)-3-(cyclopropylmethyl)-4a-hydroxy-7-methylene-2,3,4,4a,5,6,7,7a-octahydro-1H-4,12-methanobenzofuro[3,2-e]isoquinolin-9-yl dodecyl carbonate] | 100 | 31.3 | 7.6 | 4 | 1.6 | 100 | 89.1 | 96.9 | 107.2 | 101.2 | 100 | 88.7 | 74.3 | 68.4 | 70.1 | 100 | 97.6 | 102 | 109.8 | 115.1 | Liver S9 Fraction Stability % remaining at 60 minutes, Dog [5]: 17.1%; Liver S9 Fraction Stability % remaining at 60 minutes, Monkey [6]: 0%; Liver S9 Fraction Stability % remaining at 60 minutes, Human [7]: 5.3%; %Inh@MaxDose (KOR): 99.6%; %Inh@MaxDose (MOR): 102.5%; Approximate Solubility (mg/mL) in Excipient: Cottonseed oil ([8]; Cottonseed oil): >397 mg/mL; Approximate Solubility (mg/mL) in Excipient: Sesame oil ([8]; Sesame oil): >386 mg/mL; AUC0-inf (ng · h/mL) prodrug ([9]; 80 mg/kg): 78.9 ng·h/mL; Half-life t1/2 (hour) prodrug ([9]; 80 mg/kg): 340 h; AUC0-inf (ng · h/mL) prodrug ([9]; 123 mg/kg): 620 ng·h/mL; Half-life t1/2 (hour) prodrug ([9]; 123 mg/kg): 213 h; AUC0-inf (ng · h/mL) prodrug ([9]; 165 mg/kg): 637 ng·h/mL; Half-life t1/2 (hour) prodrug ([9]; 165 mg/kg): 204 h; AUC0-inf (ng · h/mL) prodrug ([10]; 30 mg/kg): 398 ng·h/mL; Half-life t1/2 (hour) prodrug ([10]; 30 mg/kg): 95 h; AUC0-inf (ng · h/mL) prodrug ([10]; 96 mg/kg): 1290 ng·h/mL; Half-life t1/2 (hour) prodrug ([10]; 96 mg/kg): 88 h |
